Assay results from US20250163056A1, “NONMUSCLE MYOSIN II INHIBITORS” (The University of Florida Research Foundation, Inc., priority 2018, published 2025).
pKi: −log10 of the molar value.

Experiments:
Bovine cardiac myosin = Bovine cardiac myosin (Bos taurus (Bovine), UniProt Q9BE39); test: Cardiac muscle myosin II actin-activated ATPase assay (NADH-coupled); type: biochemical; design: key to Ratio CMMII:NMII Ki/EC50: NMII-sel: no Ki value for cardiac myosin II could be determined; the compounds had no detectable inhibitory properties versus the cardiac myosin II; settings: for Ratio CMMII:NMII Ki/EC50: cardiac myosin II Ki over nonmuscle myosin II EC50; for pKi: 300 nM cardiac myosin, 10 μM actin, 25° C., read-out: CMMII KI
Text: (§1) The cardiac muscle myosin II actin-activated ATPase assay is a biochemical assay. Specifically, it is an NADH (nicotinamide adenine dinucleotide)-coupled ATPase assay that relies on NADH fluorescence as a readout. Cardiac myosin is a mechanochemical energy transducer that hydrolyzes ATP to generate force in the presence of its activator, F-actin. The resulting ADP is regenerated to ATP by pyruvate kinase (PK) that transforms one molecule of phosphoenolpyruvate (PEP) to pyruvate in parallel. Subsequently, pyruvate is reduced to lactate by lactate dehydrogenase (LDH) that, in turn, oxidizes one molecule of NADH to NAD. Therefore, the decrease in NADH concentration as a function of time equals the ATP hydrolysis rate. Bovine cardiac myosin is obtained from a commercial source, Cytoskeleton. PK, LDH, ATP, PEP, and NADH are obtained from Sigma. F-actin is prepared in house from Rabbit Muscle Acetone Powder. The assay is run at 25° C. in 384 well black-wall polystyrene microplates with a total volume of 20 μl per well. NADH fluorescence is monitored for 30 minutes with an EnVision Multimode Plate Reader. The slope of the fluorescence response, which is proportional to the reaction rate, is determined by simple linear regression. Final assay conditions are 300 nM cardiac myosin, 10 μM actin, 40 U/ml LDH, 200 U/ml PK, 220 μM NADH, 1 mM PEP, 1 mM ATP in a buffer containing 10 mM 3-(N-morpholino)propanesulfonic acid (pH=7.0), 2 mM MgCl2, 0.15 mM ethylene glycol-bis(p-aminoethyl ether)-N,N,N′,N′-tetraacetic acid, 0.1 mg/mL bovine serum albumin, 0.5% (V/V) dimethyl sulfoxide (DMSO) and 1 mM dithiothreitol. Prior to testing the inhibitory activity of the compounds, a two-fold dilution series starting at 10 mM compound concentration is prepared in DMSO. Subsequently, 100 nl is transferred to each well of the measuring plate containing a mixture of myosin, LDH and PK. The enzymatic reaction is started with the addition of a mixture containing ATP, PEP, NADH and actin. The highest final compound concentration is 50 uM. 20 μM para-aminoblebbistatin in 0.5% DMSO serves as the positive control and 0.5% DMSO alone is the negative control. Reaction rates are determined by using the fluorescence responses of a dilution series of NADH included in all plates and plotted as a function of inhibitor concentration. All measurements are carried out in triplicate. Inhibitory constants are determined by fitting the 16 point dose-response data to a quadratic equation corresponding to a simple one-to-one binding model.

[1] = Photostability, percentage remaining undegraded under illumination or in the dark; settings: for Photostability 4 hours: percentage remaining undegraded after 4 hours illumination; for Photostability 24 hours: percentage remaining undegraded after 24 hours illumination; for Photostability Dark (24 h): percentage remaining undegraded in the dark
Rabbit skeletal myosin = test: Skeletal muscle myosin II actin-activated ATPase assay; type: biochemical; settings: 20 nM skeletal muscle myosin II; read-out: SKMMII KI
Text: as §1
The skeletal muscle myosin II actin-activated ATPase assay is performed the same as for cardiac muscle myosin II with the following exceptions: Rabbit skeletal myosin is obtained from Cytoskeleton and the final assay conditions contain 20 nM skeletal muscle myosin II.

Chain of Bovine cardiac myosin (Q9BE39 whole entry): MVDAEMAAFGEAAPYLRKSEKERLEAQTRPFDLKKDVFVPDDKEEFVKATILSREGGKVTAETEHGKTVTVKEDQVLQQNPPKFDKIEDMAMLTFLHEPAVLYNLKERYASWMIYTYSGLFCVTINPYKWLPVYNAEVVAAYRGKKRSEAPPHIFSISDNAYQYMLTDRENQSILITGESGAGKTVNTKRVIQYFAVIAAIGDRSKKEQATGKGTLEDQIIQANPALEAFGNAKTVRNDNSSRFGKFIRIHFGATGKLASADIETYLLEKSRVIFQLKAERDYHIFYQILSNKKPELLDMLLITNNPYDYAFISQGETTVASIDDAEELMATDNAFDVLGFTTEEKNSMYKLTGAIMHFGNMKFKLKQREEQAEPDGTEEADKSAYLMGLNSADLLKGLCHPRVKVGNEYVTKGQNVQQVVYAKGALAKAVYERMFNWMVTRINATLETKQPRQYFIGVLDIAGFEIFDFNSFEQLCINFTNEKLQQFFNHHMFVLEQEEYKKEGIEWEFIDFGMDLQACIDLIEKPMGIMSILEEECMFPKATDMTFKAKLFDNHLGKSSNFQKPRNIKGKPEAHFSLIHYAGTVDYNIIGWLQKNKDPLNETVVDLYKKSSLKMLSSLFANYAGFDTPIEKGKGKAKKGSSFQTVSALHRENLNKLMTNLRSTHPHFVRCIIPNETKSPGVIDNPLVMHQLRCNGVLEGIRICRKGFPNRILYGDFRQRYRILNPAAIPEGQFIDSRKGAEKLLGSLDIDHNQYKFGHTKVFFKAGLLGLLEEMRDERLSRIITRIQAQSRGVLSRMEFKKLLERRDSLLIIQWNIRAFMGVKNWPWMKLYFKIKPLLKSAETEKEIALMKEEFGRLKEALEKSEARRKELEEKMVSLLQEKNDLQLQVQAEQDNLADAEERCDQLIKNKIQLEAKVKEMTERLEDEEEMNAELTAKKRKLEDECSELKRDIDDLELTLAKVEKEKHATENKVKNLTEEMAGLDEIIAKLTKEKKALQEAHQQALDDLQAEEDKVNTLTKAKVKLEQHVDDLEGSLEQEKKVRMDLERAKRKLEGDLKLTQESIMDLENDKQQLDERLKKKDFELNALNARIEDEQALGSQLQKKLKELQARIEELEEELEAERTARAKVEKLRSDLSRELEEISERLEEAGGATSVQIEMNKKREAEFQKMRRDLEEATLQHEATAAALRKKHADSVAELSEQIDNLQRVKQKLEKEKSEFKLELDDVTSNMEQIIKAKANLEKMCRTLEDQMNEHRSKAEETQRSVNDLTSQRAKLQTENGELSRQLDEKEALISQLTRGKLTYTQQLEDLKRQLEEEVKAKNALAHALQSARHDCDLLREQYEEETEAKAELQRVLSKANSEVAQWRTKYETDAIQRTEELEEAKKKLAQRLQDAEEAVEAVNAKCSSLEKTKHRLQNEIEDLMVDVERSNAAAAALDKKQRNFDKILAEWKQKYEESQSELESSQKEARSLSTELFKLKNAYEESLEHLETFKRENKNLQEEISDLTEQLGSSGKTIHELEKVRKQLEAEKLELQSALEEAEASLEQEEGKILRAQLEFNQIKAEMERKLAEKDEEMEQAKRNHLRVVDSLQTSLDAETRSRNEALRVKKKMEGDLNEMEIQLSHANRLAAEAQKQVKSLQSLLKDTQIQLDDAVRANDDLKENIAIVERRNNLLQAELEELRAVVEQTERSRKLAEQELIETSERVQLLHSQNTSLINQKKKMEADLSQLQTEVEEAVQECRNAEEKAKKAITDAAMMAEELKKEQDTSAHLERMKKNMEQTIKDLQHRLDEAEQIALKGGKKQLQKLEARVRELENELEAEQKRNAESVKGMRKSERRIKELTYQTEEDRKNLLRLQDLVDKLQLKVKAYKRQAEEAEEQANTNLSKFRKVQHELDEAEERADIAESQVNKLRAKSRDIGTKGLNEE
Chain of Bovine cardiac myosin (P85100 whole entry partner): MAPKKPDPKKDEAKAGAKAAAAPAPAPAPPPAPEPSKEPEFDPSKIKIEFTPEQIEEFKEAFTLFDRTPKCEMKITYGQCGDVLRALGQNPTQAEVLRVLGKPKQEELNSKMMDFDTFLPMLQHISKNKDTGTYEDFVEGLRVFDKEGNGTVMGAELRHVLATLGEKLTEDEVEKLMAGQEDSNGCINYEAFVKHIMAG
Chain of Bovine cardiac myosin (Q3SZE5 whole entry partner): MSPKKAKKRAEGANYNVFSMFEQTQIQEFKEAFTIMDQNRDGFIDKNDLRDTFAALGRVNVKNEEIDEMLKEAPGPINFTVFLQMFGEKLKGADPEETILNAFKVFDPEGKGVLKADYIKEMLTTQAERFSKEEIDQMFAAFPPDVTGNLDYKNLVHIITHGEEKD

Row | SMILES | Ratio CMMII:NMII Ki/EC50 (Bovine cardiac myosin) | Photostability 4 hours [1] | Photostability 24 hours [1] | Photostability Dark (24 h) [1] | pKi (Rabbit skeletal myosin) | pKi (Bovine cardiac myosin)
1 | COc1cc(N2CC[C@@]3(O)C(=O)c4cc(C(F)(F)F)ccc4N=C23)ccn1 [BPN-0026533] | NMII-sel | 87.7% | 6.4% | 91.7% | 4.22 | 
2 | O=C1c2cc(C(F)(F)F)ccc2N=C2N(c3ccc(Cl)cc3)CC[C@@]12O [BPN-0026544] | NMII-sel | 51.1% | 10.8% | 93.7% | 5.32 | 
3 | O=C1c2cc(Cl)ccc2N=C2N(c3ccc4ccsc4c3)CC[C@@]12O [BPN-0026545] | NMII-sel | 89.4% | 5.1% | >99% | 4.92 | 
4 | O=C1c2cc(Cl)ccc2N=C2N(c3ccc4sccc4c3)CC[C@@]12O [BPN-0026546] | NMII-sel | 81.2% | 12.5% | 93.5% | 4.66 | 
5 | Cc1cc2c(s1)N=C1N(c3ccc(C#N)c(C)c3)CC[C@@]1(O)C2=O [BPN-0026576] | 3.3 | 98.6% | >99% | >99% | 5.34 | 4.74
6 | Cc1ccc(N2CC[C@@]3(O)C(=O)c4cc(F)c(C)cc4N=C23)cc1 [BPN-0026579] | 5.0 | 77.3% | 8.5% | 93.7% | 6.43 | 5.30
7 | COc1ccc(N2CC[C@@]3(O)C(=O)c4cc(F)c(C)cc4N=C23)cc1 [BPN-0026605] | 15.0 | 69.6% | 2.3% | 94.2% | 6.54 | 4.82
8 | Cc1ccc(N2CC[C@@]3(O)C(=O)c4cc(F)c(C)cc4N=C23)cc1C [BPN-0026607] | NMII-sel | 98.5% | 84.7% | 98.1% | 5.24 | 
9 | N#Cc1ccc(N2CC[C@@]3(O)C(=O)c4cc(C(F)(F)F)ccc4N=C23)cc1 [BPN-0026608] | 11.6 | 86.7% | <1% | 97.5% | 5.77 | 4.30
10 | COc1cccc(N2CC[C@@]3(O)C(=O)c4cc(F)c(C)cc4N=C23)c1 [BPN-0026618] | 3.8 | 92.3% | 17.2% | 96.6% | 5.23 | 4.74
11 | Cc1cc2c(cc1F)C(=O)[C@]1(O)CCN(c3ccc4ccoc4c3)C1=N2 [BPN-0026619] | 22.5 | 77.4% | <1% | 91.0% | 5.60 | 4.44
12 | Cc1cccc(N2CC[C@@]3(O)C(=O)c4cc(F)c(C)cc4N=C23)c1 [BPN-0026620] | NMII-sel | 94.1% | 27.8% | 92.8% | 4.80 | 
13 | COc1cc(N2CC[C@@]3(O)C(=O)c4cc(Cl)ccc4N=C23)ccn1 [BPN-0026621] | 7.0 | 93.3% | 61.4% | 93.5% | 5.47 | 4.40
14 | Cc1cc2c(s1)N=C1N(c3cccc(Br)c3)CC[C@@]1(O)C2=O [BPN-0026624] | 14.0 | 90.5% | 88.2% | 92.2% | 4.62 | 3.68
15 | Cc1cc2c(cc1F)C(=O)[C@]1(O)CCN(c3ccc(C#N)cc3)C1=N2 [BPN-0026638] | 7.1 | 87.9% | 71.9% | 91.6% | 6.43 | 4.92
16 | Cc1cc2c(s1)N=C1N(c3ccc4ccoc4c3)CC[C@@]1(O)C2=O [BPN-0026639] | 4.2 | 89.8% | 49.5% | >99% | 5.96 | 4.85
17 | O=C1c2cc(Cl)ccc2N=C2N(c3ccc(Cl)cc3)CC[C@@]12O [BPN-0026640] | 4.0 | 71.1% | 17.8% | 96.8% | 6.28 | 5.10
18 | O=C1c2cc(Cl)c(Cl)cc2N=C2N(c3ccccc3)CC[C@@]12O [BPN-0026643] | 3.5 | 64.0% | <1% | 85.1% | 5.72 | 4.77
19 | Cc1cc2c(cc1C(F)(F)F)N=C1N(c3ccccc3)CC[C@@]1(O)C2=O [BPN-0026648] | 11.9 | 94.3% | 84.3% | 97.7% | 5.35 | 4.25
20 | Cc1ccc2c(c1)C(=O)[C@]1(O)CCN(c3ccc4ccsc4c3)C1=N2 [BPN-0026650] | NMII-sel | 80.5% | 5.5% | >99% | 5.37 | 
21 | Cc1ccc2c(c1)C(=O)[C@]1(O)CCN(c3ccc4sccc4c3)C1=N2 [BPN-0026651] | NMII-sel | 73.0% | 5.8% | 97.5% | 5.41 | 
22 | Cc1cc2c(cc1Cl)C(=O)[C@]1(O)CCN(c3ccccc3)C1=N2 [BPN-0026659] | 3.5 | 72.1% | 17.9% | 91.1% | 6.03 | 5.05
23 | Cc1cc2c(cc1C)C(=O)[C@]1(O)CCN(c3cccc(Br)c3)C1=N2 [BPN-0026660] | NMII-sel | 87.4% | 7.6% | 93.8% | 4.48 | 
24 | Cc1cc2c(cc1C)C(=O)[C@]1(O)CCN(c3ccc(C#N)c(C)c3)C1=N2 [BPN-0026661] | 22.1 | 95.5% | 65.4% | 98.2% | 5.66 | 4.28
25 | Cc1cc2c(cc1C)C(=O)[C@]1(O)CCN(c3ccc(Cl)cc3)C1=N2 [BPN-0026662] | 5.5 | 85.4% | 7.5% | >99% | 6.72 | 5.22
26 | Cc1ccc(N2CC[C@@]3(O)C(=O)c4cc(C)c(C)cc4N=C23)cc1 [BPN-0026663] | 3.5 | 40.7% | 2.0% | 97.3% | 6.92 | 5.55
27 | Cc1cc2c(cc1C)C(=O)[C@]1(O)CCN(c3ccc4ccoc4c3)C1=N2 [BPN-0026664] | 33.3 | 30.3% | <1% | 97.7% | 5.82 | 4.54
28 | COc1ccc(N2CC[C@@]3(O)C(=O)c4cc(C)c(C)cc4N=C23)cc1 [BPN-0026665] | 6.7 | 2.7% | <1% | 97.4% | 6.85 | 5.38
